Here are results for five compounds from publication PMC10969560, “Eye Drop with Fas-Blocking Peptide Attenuates Age-Related Macular Degeneration” (Cells, 2024).

One data set concerns Jurkat cells. As to the kind of experiment: Flow cytometry analysis of Fas/FasL-mediated apoptosis in Jurkat cells. It is filed as cell-based. To be noted: N=3, Figure S4B. From the text: (§1) Figure S4. Size- dependent FBP binding test in Jurkat cells. (A) Size- dependent FBP flow cytometry analysis of binding in Jurkat cells. (B) Size-dependent FBP flow cytometry analysis of apoptosis in Jurkat cells. The data are pres en ted as the mean ± SD (N=3 per group). *P<0.05, ***P<0.001, and ns indicates not

The test system of data set [1] is Fas-expressing Jurkat cells. As to the kind of experiment: Size-dependent FBP binding test in Jurkat cells (flow cytometry). To be noted: N=3, Figure S4A.
Description: as §1

For data set [2], the system named is NaIO3-induced retinal degeneration mice. As to conditions: mouse, in vivo.
Description: Retinal degeneration was induced by intravenous injection of NaIO3 (30 mg/kg) in 6-week-old male BALB/c mice (N = 3 per group), weighing 18–22 g (Orient Bio, Seoul, Korea). The eye drop administration group received peptides dissolved in PBS at dosages of 10 mg/mL (50 μg/5 μL) per ocular instillation. For intravitreal administration, peptide solutions dissolved in PBS were administered into the vitreous humor at a concentration of 1 mg/mL (1 μg/1 μL) per administration.
The N-terminal of the target peptide was fluorescently tagged using Alexa Fluor™ 647 NHS Ester (Succinimidyl Ester) (Invitrogen, Carlsbad, CA, USA), following the manufacturer’s protocol. Subsequently, free dye molecules were removed through a PD-10 desalting column (GE Healthcare, Milwaukee, WI, USA). Seven days after induction with NaIO3, Alexa647-conjugated peptides were administered via eye drops. Twelve hours after the last administration, organs were harvested for experiments, and Alexa647 signals were detected on whole organs using a FOBI imaging machine ([sequence], Cheongju, Republic of Korea).
For IHC, eyes were harvested and embedded in the Tissue-Tek® OCT Compound (Sakura Finetek Europe BV, Alphen aan den Rijn, The Netherlands) to prepare cryoblocks for cryosectioning. After freezing the eyes in the Tissue-Tek® OCT Compound, the eyes were cryosectioned to a thickness of 10 μm and mounted with ProLong™ Glass Antifade Mountant with NucBlue™ Stain (Invitrogen). The anti-Fas rabbit mAb (#4233S, Cell Signaling Technology, Danvers, MA, USA) was used to capture the Fas receptor, and the Fas antibody was subsequently detected using Goat Anti-Rabbit IgG H&L (Alexa Fluor® 488) (ab150077, Abcam, Cambridge, UK). A ZEISS Axio Scan.Z1 Slide Scanner (Carl Zeiss, Oberkochen, Germany) was employed to detect NucBlue™ stained cell nuclei and the Alexa647-conjugated peptide signals.
For data set [3] the test system is unchanged. As to the kind of experiment: TUNEL assay in NaIO3-induced retinal degeneration mouse model. In kind it is in vivo, BALB/c mice. As to conditions: eye drop application, N=3, Figure 3C. On the procedure:
(§2) To confirm the therapeutic effect of 6R-FBP, histological evaluation was conducted through hematoxylin and eosin (H&E) staining and the TUNEL assay. The eyes were fixed with 4% paraformaldehyde in PBS at room temperature for 20 min. After fixation, the eyes were sequentially incubated in 10%, 20%, and 30% (w/v) sucrose solution diluted in PBS for 30 min each at room temperature. Subsequently, the eyeballs were sagittally halved with a razor blade and embedded in Tissue-Tek® OCT Compound, and then frozen immediately in a liquid nitrogen chamber. Trimming was minimized to maintain controlled distances and ensure consistency, and sections were sliced at a thickness of 10 μm. Sections from the eye cryoblock were used for H&E staining and the TUNEL assay. The TUNEL assay was conducted according to the manufacturer’s protocol using the TUNEL assay kit (Abcam).

The next data set deals with cleaved caspase-3 and 8. As to the kind of experiment: Western blot of apoptosis-related proteins in NaIO3-treated ARPE-19 cells. It is filed as cell-based, human. To be noted: ARPE-19, NaIO3-treated; Figure 1C. On the procedure:
Total protein samples were extracted from ARPE-19 cells using ice-cold RIPA buffer containing a protease inhibitor cocktail. A 4× sample buffer containing Tris-(2-Carboxyethyl)phosphine (Invitrogen, Carlsbad, CA, USA) was prepared by mixing 950 µL of 4× Laemmli sample buffer (GenDEPOT) with 50 µL of Tris-(2-Carboxyethyl)phosphine (Invitrogen). Protein samples (15 μg) were diluted in the sample buffer and heated at 95 °C for 5 min. The samples were then loaded onto a 12% SDS-PAGE gel and transferred onto a PVDF transfer membrane. The blots were probed with rabbit anti-cleaved caspase-3 (1:1000, Abcam, Cambridge, UK, ab52293), anti-cleaved caspase-8 (1:1000, Abcam, ab25901) and rabbit polyclonal anti-Fas (1:1000, Abcam, ab82419). Secondary polyclonal antibodies were probed with rabbit IgG coupled to HRP (1:2000, Abcam, ab97051). Finally, the blots were developed using ECL Western blotting substrate (Promega, Madison, WI, USA).
Background: A western blot detects proteins with antibodies after separation by electrophoresis.

Data set [4] has as its system NaIO3-induced retinal degeneration mice. As to the kind of experiment: H&E histology in NaIO3-induced retinal degeneration mouse model. As to conditions: eye drop application, NaIO3 30 mg/kg i.v., peptides 10 mg/mL (50 μg/5 μL), N=3, Figure 3B. It is filed as in vivo, BALB/c mice. On the procedure: as §2
Data set [5] deals with ARPE-19 cells. As to the kind of experiment: Annexin V/PI flow cytometry apoptosis analysis in NaIO3-treated ARPE-19 cells. As to conditions: ARPE-19, NaIO3 10 mM + peptide 700 μM, 24 h; N=3; Figure 1B. It is filed as cell-based, human. Here is the method: The efficacy of FBP on the inhibition of ARPE-19 cell apoptosis was assessed through annexin V/propidium iodide (PI) staining, followed by flow cytometry analysis. […] After 24 h of treatment with NaIO3 (10 mM) and the FBP peptide (700 μM), the cells were harvested and stained using the Dead Cell Apoptosis Kits with annexin V for Flow Cytometry (Invitrogen, Carlsbad, CA, USA), following the manufacturer’s protocol. The stained cells were collected and analyzed using a BD FACSCalibur™ system (Becton Dickinson, Franklin Lakes, NJ, USA).
(In general: Flow cytometry measures light scatter and fluorescence of single cells or particles in a stream.)

The test system of a further data set is Fas. As to the kind of experiment: RT-PCR of Fas expression in NaIO3-treated ARPE-19 cells. As to conditions: ARPE-19, NaIO3 10 mM + peptide 700 μM, 24 h; N=3; Figure 1A. It is filed as cell-based, human. On the procedure:
After 24 h of treatment with NaIO3 (10 mM) and the FBP peptide (700 μM), the cells were harvested for analysis. Total RNA from the ARPE-19 cells was extracted using the RNAiso kit (Takara, Kyoto, Japan). Total RNA was reverse-transcribed into cDNA using the High-Capacity cDNA Reverse Transcription Kit (Applied Biosystems, Waltham, MA, USA). The quantification of gene expression was performed using PowerUp™ SYBR™ Green Master Mix (Thermo Fisher Scientific, Waltham, MA, USA) on an ABI 7500 Fast Real-Time PCR system (Applied Biosystems, Waltham, MA, USA). The sequences of primer pairs used for real-time PCR are depicted in Table 2.

Data set [6] concerns NaIO3-induced retinal degeneration rabbits. As to the kind of experiment: H&E staining, ONL to total retinal thickness, in NaIO3-induced retinal degeneration rabbits. It is filed as in vivo, chinchilla rabbits. To be noted: rabbit, eye drops twice daily; Day 14; N=4; Figure 4D. On the procedure:
(§3) The efficacy of the treatment was evaluated through an experiment conducted by KNOTUS, a contract research organization. In brief, retinal degeneration was induced by intravenous injection of NaIO3 (60 mg/kg) in 20 chinchilla rabbits, weighing 2 kg.
(§4) The eye drop administration group received dosages of 5 mg/mL (250 μg/50 μL) per ocular instillation. For intravitreal administration, peptide solutions (5 mg/mL) were administered in increments of 40 μL per administration. A pipette was used to administer the test substance onto the central cornea of the right eye for each experimental group.
(§5) Anesthetized animals were administered the test substance via subconjunctival injection into the right eye using a 31-gauge syringe needle attached to a syringe. In the case of eye drop administration, the peptides and PBS were administered twice daily for 2 weeks, for a total of 28 administrations. For intravitreal administration, a single dose of the peptide was administered the day after the NaIO3 injection.
On the concluding day of the experiment (Day 14), the animals were anesthetized using the previously described mixture of Zoletil®50 and Rompun^TM, after which they were sacrificed. NaIO3-induced retinal degeneration eyes were then extracted, and the central cornea was punctured using an injection needle. Subsequently, the specimens were fixed in a 10% neutral buffered formalin solution. For histopathological examination, the fixed tissues were subjected to processes such as fixation, dehydration, paraffin embedding, and sectioning. H&E staining was then performed, and the proportion (%) of the thickness of the outer nuclear layer (ONL) to the overall retinal thickness was calculated using an Olympus BX-53 optical microscope (Olympus, Tokyo, Japan). Two slides were prepared per eyeball relative to the optic nerve. Measurements were taken at three points on each slide, amounting to a total of six values, which were averaged.

For data set [7], the system named is NaIO3-induced retinal degeneration mice. As to the kind of experiment: In vivo real-time PCR of eye posterior hemisphere in NaIO3-induced retinal degeneration mouse model. Also on record: species or system BALB/c mice. To be noted: eye drop application, N=3, Figure 3D; for expression of Fas receptor, inflammatory cytokines, and macrophages compared to the mock group (qPCR): posterior hemisphere. An excerpt:
The mouse eye posterior hemisphere was dissected using Vannas scissors. Subsequently, total RNA was extracted from the posterior hemisphere of the left eye using the RNAiso kit (Takara). RNA was reverse-transcribed with the High-Capacity cDNA Reverse Transcription Kit (Applied Biosystems, Waltham, MA, USA) and quantified using PowerUp™ SYBR™ Green Master Mix (Thermo Fisher Scientific, Waltham, MA, USA) on an ABI 7500 Fast Real-Time PCR system (Applied Biosystems, Waltham, MA, USA). Relative expression was determined using the ΔΔCt method, normalized against GAPDH mRNA levels. The primer sequences used are depicted in Table 2.
(In general: Quantitative PCR measures a nucleic acid by following its amplification.)

The test system of data set [8] is ARPE-19 cells.
Description: To confirm the cytotoxicity of CPP-conjugated FBP (4R-FBP, 5R-FBP, 6R-FBP, 9R-FBP) on ARPE-19 cells, the cells were plated in a 12-well plate at a density of 2 × 10^5/mL. After 24 h of treatment with various peptides (4R-FBP, 5R-FBP, 6R-FBP, 9R-FBP, and FBP), the CCK-8 assay was performed as per the manufacturer’s protocol.
Peptide toxicity was assessed
using CCK-8 assay in ARPE-19 cell. The data are presented as the mean ± SD (N=3 per group). ns
Data set [9] relates to NaIO3-induced retinal degeneration rabbits. As to the kind of experiment: Fundus imaging of RPE degenerated area in NaIO3-induced retinal degeneration rabbit model. It is filed as in vivo, chinchilla rabbits. To be noted: NaIO3 60 mg/kg i.v., eye drops 5 mg/mL (250 μg/50 μL) twice daily for 14 days, N=4, Figure 4B. On the procedure:
as §3, §4, §5
Before the administration of NaIO3 (Day 0) and upon concluding the experiment (Day 14), the right eyes of the rabbits were treated with a mydriatic agent (1% midriacyl eye drops). Subsequently, the rabbits were anesthetized with a mixture of Zoletil®50 (Virbac, Carros, France) and Rompun^TM (Bayer AG, Leverkusen, Germany) through intravenous injection (marginal ear vein) at a dosage of 0.1 mL/kg. Fundus imaging was conducted using a fundus camera (TRC-50IX, TOPCON, Tokyo, Japan). The retinal images were analyzed using Image J software version 1.54d (NIH, Bethesda, MD, USA) to determine the area of degeneration in the RPE, with the RPE injury area being manually selected. The total area of the retina, excluding the optic nerve region, was defined as the total area. The proportion of degenerated area was calculated as a percentage using Equation (1). Degenerated area (%) = Degenerated area/Total area(1)

On to “CDEHF [5-mer, 5-mer truncated FBP, CDEHF]”, for which the “inhibition of Fas/FasL-mediated apoptosis” value in the data set on Jurkat cells is recorded as “could not inhibit”. The “binding to Fas-expressing Jurkat cells” value in data set [1] is “demonstrated binding”.
For the compound DEHF [4-mer], in the data set with Jurkat cells, the “inhibition of Fas/FasL-mediated apoptosis” value is “could not inhibit”. Moreover, in data set [1], the “binding to Fas-expressing Jurkat cells” value is given as “demonstrated binding”. In data set [2], the “size-dependent retinal delivery (confocal, Alexa647 signal)” value is “successfully delivered”.
On to “GGGRRGGG [Ctrl, nonspecific control peptide, GGGRRGGG, reference compound]”, for which the “apoptosis levels in retina (TUNEL)” value in data set [3] was “higher apoptosis levels”. Also, the “levels of cleaved caspase-3 and 8 (Western blot)” value in the data set on cleaved caspase-3 and 8 is reported as “upregulation”. In data set [4], the “therapeutic effect on integrity of the retinal layer (H&E staining)” value (shortened to “therapeutic effect on integrity”) is “no therapeutic effect”. Moreover, the “apoptosis (annexin V/PI staining) compared with mock group” value in the data set with ARPE-19 cells [5] was “no protective effects against apoptosis”. Further, the “expression of Fas (RT-PCR)” value in the data set with Fas was “increased”.
Consider “RRRRRRGGGGYCDEHFCY [6R-FBP, hexa-arginine (6R) conjugated with FBP]”, for which, in data set [6], the “proportion of thickness of ONL to total retinal thickness compared with mock group (H&E)” value was “maintenance of the ONL”. In addition, the “apoptosis levels in retina (TUNEL)” value in [3] is reported as “lower apoptosis levels”. For the same compound, in data set [2], the “size-dependent retinal delivery (confocal, Alexa647 signal)” value is on record as “robust fluorescence signals”. For the same compound, in data set [4], the “therapeutic effect on integrity” value is listed as “therapeutic effects”. Further, in data set [7], the “levels of M2 macrophages compared to the mock group (qPCR, CD206)” value is reported as “increased levels”; the “expression of Fas receptor, inflammatory cytokines, and macrophages compared to the mock group (qPCR)” value is on record as “decreased expression”. Also, the “toxicity of CPP-conjugated FBP in retinal cells” value in the data set with ARPE-19 cells [8] was “lower toxicity”. Moreover, the “RPE degeneration compared with mock treatment (fundus imaging)” value in [9] is recorded as “significant reduction in RPE degeneration”.
For the compound `C[C@@H]1C[C@H]2[C@@H]3CCC4=CC(=O)C=C[C@]4(C)[C@@]3(F)[C@@H](O)C[C@]2(C)[C@@]1(O)C(=O)CO` [Dexa, dexamethasone, reference compound], the “apoptosis levels in retina (TUNEL)” value in data set [3] is reported as “lower apoptosis levels”. Moreover, the “therapeutic effect on integrity” value in data set [4] is given as “therapeutic effects”. Also, in data set [7], the “levels of M2 macrophages compared to the mock group (qPCR, CD206)” value is listed as “increased levels”; the “expression of Fas receptor, inflammatory cytokines, and macrophages compared to the mock group (qPCR)” value is reported as “decreased expression”.
